# Tests used:
# [1] = test system: APP/PS1 transgenic (tg) mouse model of AD; test: APP/PS1 transgenic mouse model of AD, memory, learning and synaptic transmission; assay type: in vivo
# From the text: Butanetap's efficacy in treating neurodegeneration in animal models: Restored memory and learning in an APP/PS1 transgenic (tg) mouse model of AD; Restored memory and learning in a Ts65dn mouse model of Down syndrome (DS) [W. Mobley, UCSD, submitted 2020]; Preserved the retina in acute glaucoma [J Sundstrom; Hershey Medical School]; Restored colonic motility in a human SNCAA53T tg mouse model of PD (Kuo et. al., Am J Neurodegener Dis 2019; 8(1):1-15 www.AJND.us/ISSN:216 591X/AJND0086080: Translational inhibition of α-synuclein by Butanetap (Posiphen) normalizes distal colon motility in transgenic Parkinson mice); Preserved memory and learning in traumatic brain injury rats (M-F Chesselet, submitted 2020).
# Butanetap's reversal of the neurotoxic cascade: Butanetap's mechanism of action is related to APP, Tau, and aSYN expression being regulated by RP1 and by iron and the way these proteins contribute to neurodegeneration by accumulating as toxic aggregates that impair axonal transport and synaptic transmission, causing inflammation, and, finally, leading to nerve cell death (as described previously).
# [2] = test system: APP in SH-SY-5Y human neuroblastoma cells; test: APP in vitro, Western blot; assay type: cell-based; conditions: 0, 0.1, 1, 5 and 10 μM, FIG. 1
# [3] = target: APP or aSYN mRNA to IRP1 (Homo sapiens, UniProt P21399); test: Binding of mRNA IRE to IRP1
# Chain of APP or aSYN mRNA to IRP1 (P21399 whole entry): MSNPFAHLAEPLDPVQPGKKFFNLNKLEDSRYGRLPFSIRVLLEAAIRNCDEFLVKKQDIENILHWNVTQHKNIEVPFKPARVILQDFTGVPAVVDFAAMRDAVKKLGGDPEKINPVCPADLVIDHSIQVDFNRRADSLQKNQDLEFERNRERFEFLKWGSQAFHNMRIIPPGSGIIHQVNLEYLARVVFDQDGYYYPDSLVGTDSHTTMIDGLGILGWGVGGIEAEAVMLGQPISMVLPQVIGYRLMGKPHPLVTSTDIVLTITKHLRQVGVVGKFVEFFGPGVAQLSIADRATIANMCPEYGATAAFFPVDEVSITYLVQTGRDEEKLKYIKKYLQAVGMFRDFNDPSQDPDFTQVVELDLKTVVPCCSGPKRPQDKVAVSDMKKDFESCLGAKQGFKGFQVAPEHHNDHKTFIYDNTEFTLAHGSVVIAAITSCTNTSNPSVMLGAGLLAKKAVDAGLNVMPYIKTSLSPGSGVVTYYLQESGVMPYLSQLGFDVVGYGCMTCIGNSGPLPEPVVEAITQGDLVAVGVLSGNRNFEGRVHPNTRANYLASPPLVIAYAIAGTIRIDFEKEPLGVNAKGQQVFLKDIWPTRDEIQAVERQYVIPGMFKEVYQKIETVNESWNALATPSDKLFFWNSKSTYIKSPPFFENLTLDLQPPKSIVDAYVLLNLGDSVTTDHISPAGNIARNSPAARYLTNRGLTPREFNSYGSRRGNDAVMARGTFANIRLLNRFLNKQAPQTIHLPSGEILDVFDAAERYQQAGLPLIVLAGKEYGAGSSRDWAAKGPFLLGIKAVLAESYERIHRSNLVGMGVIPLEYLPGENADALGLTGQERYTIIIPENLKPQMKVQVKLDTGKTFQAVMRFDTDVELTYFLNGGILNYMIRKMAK
# From the text: Therefore, the original data concerning the effects of butanetap working under all conditions is wrong. (See, e.g., Lahiri, et al., “The Experimental Alzheimer's Disease Drug butanetap [(+)-Phenserine] Lowers Amyloid-β Peptide Levels in Cell Culture and Mice”, J. Pharmacol. Ther. 320:386-396, 2007 (hereby incorporated by reference)). It only works in stressed cells, dividing cells and sick cells, e.g., those cells that have high levels of iron.
# Butanetap augments the binding of APP mRNA IRE to IRP1 under high iron conditions and prevents APP from being translated excessively, restoring homeostasis. The same mechanism works for all neurotoxic aggregating proteins tested to date: Butanetap works under iron-dishomeostasis to restore homeostasis.
# [4] = test system: human SNCAA53T tg mouse model of PD; conditions: SNCAA53T tg mice; cited from earlier work
smiles,measurement,setting,value
"CN1CC[C@]2(C)c3cc(OC(=O)Nc4ccccc4)ccc3N(C)C12 (stereo partly drawn) [butanetap, (3aR)-1,3a,8-trimethyl-1,2,3,3a,8,8a-hexahydropyrrolo[2,3-b]indol-5-yl phenylcarbamate]",memory and learning,[1]; APP/PS1 tg mice,Restored
same,impaired synaptic transmission,[1]; hippocampus of APP/PS1 tg mice,Normalized
same,APP in relation to Actin standard,[2],lowers APP in vitro in a dose-dependent manner
same,binding of APP mRNA IRE to IRP1,[3]; under high iron conditions,augments
same,binding of APP or aSYN mRNA to IRP1,[3]; under iron or metal-homeostasis,does not increase
same,colonic motility,[4],Restored

# — patent publication US12582632B2, “Inhibition of neurological injuries due to infections via administration of Butanetap and analogs thereof” (priority 2021, dated 2026)
